Data set [1] is described as follows: behavioural study in rats: anxiety induced by a new environment (rearings and movements). In kind it is in vivo, male Sprague-Dawley rats. The following applies: for ED50: Rattus norvegicus, 0.5 h. The text has this:
The xanthines obtained in accordance with the preceding Examples were the subject of a behavioural study in rats as a function of the anxiety induced by a new environment. In rats, anxiety is manifested by rearing the animal on its two hind paws, whilst locomotive activity is expressed by their movements.
A state of anxiety is induced by confronting "naive" male Sprague-Dawley (Iffa-Credo, France) rats weighing from 260 to 300 g with a new environment in the form of cages of Macrolon (30×25 cm) which are situated in a sound-proofed air-conditioned room (22° C./50% relative humidity).
The number of rearings and movements is automatically determined by means of infrared photoelectric cells which only emit electrical pulses for the active movements of the animal and not for its static movements, such as those of its head and tail, for reasons of reproducibility. These photoelectric cells scan the cages at two different levels so as to distinguish the standing-up movements from the other movements. The number of rearings and movements is counted by the two rows of photoelectric cells, memorised and read out using a printer in accordance with a pre-established program.
The tested compound in solution in the form of its sodium salt is orally administered by oesophagus probe (the reference administration being formed by 6 ml/kg of distilled water) 30 minutes before the animals are placed in the cages. The number of rearings and movements is determined during the 15 minutes after they have been put into the cages in relation to the effect generated by the reference administration.
The ED 50 dose (expressed in mg/kg), i.e. the quantity of substance required to bring about a 50% variation in the motive activity in relation to the reference administration, is determined from the development of the effects of the tested substances on the number of movements and rearings as a function of the progressive doses administered expressed as a percentage of the movements and rearings counted for the reference administration.
The gradients of the regression curves corresponding to the movements and to the rearings are compared by recording the value of the gradient of the movement curve on the abscissa (d) and the value of the gradient of the rearing curve on the ordinant (r) of a system of rectungular axes.
The ratio of the gradient of the movements to that of the rearings is also determined, enabling the specificity of effect of a given substance on the anxiety state to be assessed.
The effect of a substance is determined by its position relative to the curve d=r of gradient=1. The substances situated on this curve have a similar effect on the rearings and movements, being sedatives with a non-specific effect (S.N.). For these compounds, the ED 50 value quoted corresponds to the mean taken from the two regression curves.
These compounds are sedatives of anxiolytic character (S.A.). In this case, the ED 50 value is calculated from the regression curve of the rearings.

Data set [2] in a line: base screening: anti-histamine in vitro. The text has this:
(f) anti-histamine in vitro as determined in accordance with R. Magnus, Arch f.d., ges. physiol., Vol. 102, pages 123-151, 1904.

Data set [3] in a line: base screening: diuretic in male rats. In kind it is in vivo. The following applies: Rattus norvegicus, read-out: minimal effective dose producing a significant response, diuretic (c). The text has this: (c) diuretic in male rats, as determined in accordance with W. L. Lipschitz, Z Hadidian and A. Kerpcsar, JPET, Vol. 79, pages 97-110, 1943
Data set [4] is described as follows: base screening: bronchodilatory in vitro. The text has this: (e) bronchodilatory in vitro as determined in accordance with F. P. Luduena et al., Arch. int. Pharmacodyn, Vol. 111, pages 392-400, 1957
A short description of data set [5]: base screening: anti-allergic in male and female rats. The format is in vivo. The following applies: for minimal effective dose: Rattus norvegicus, read-out: minimal effective dose producing a significant response, anti-allergic (d). The text has this: (d) anti-allergic in male and female rats, as determined in accordance with J. Goose and A. M. J. N. Blair, Immunol., Vol. 16, pages 749-760, 1969

A short description of data set [6]: hypomotility induced by amphetamine in rats. In kind it is in vivo. The following applies: p.o. The text has this: (§1) The compounds of Examples 1, 4, 11 and 12 were subjected to behavioural tests in accordance with "predictability and specificity of behaviour screening tests for neuroleptics", P. Worms and K. G. Lloyd, […], Vol. 5, pages 445-450, 1979, comprising: […]

Data set [7] is described as follows: catalepsy induced by haloperidol in rats. The format is in vivo. The following applies: p.o.
Description: as §1

Data set [8] can be described thus: analgesia induced by pentobarbital in mice. The format is in vivo. The following applies: p.o.
Description: as §1

Data set [9] in a line: climbing behaviour induced by apomorphine in mice. In kind it is in vivo. The following applies: p.o.
Description: as §1

Data set [10] can be described thus: in vivo. The following applies: rat, po, solution in DMSO. The text has this:
(b) Determination of the acute toxicity LD 50 in male and female rats in solution is DMSO (reference DMSO alone) in accordance with C.

Data set [11] in a line: rectal temperature in mice. The following applies: p.o. The format is in vivo.
Description: as §1

Data set [12] in a line: stereotype behaviour induced by apomorphine in rats. The format is in vivo. The following applies: p.o.
Description: as §1

Data set [13] can be described thus: in vivo. The following applies: mouse, po, solution in DMSO.
[14] abbreviates: oral, sodium salt in solution, 30 min before test, 15 min count, S.N.: mean of two regression curves, S.A.: from rearings curve, read-out: ED 50.
Setting [15] is: female, read-out: LD 50, rats female.
The mark [16] stands for this setting: male, read-out: LD 50, rats male.

Like-named read-outs stand apart in the source and are kept apart here.

Broadly, the minimal effective dose is the smallest amount tested that counted as effective.

In the case of `Cc1nc2c([nH]1)c(=O)n(CC(C)C)c(=O)n2CC(C)C` [Example 15, 1,3-diisobutyl-8-methyl xanthine], in [1] (setting [14]), the ED50 turned out to be 0.42 mg/kg.

Take `C=CCn1c(=O)c2[nH]c(C)nc2n(CCC(C)C)c1=O` [Example 7, 1-allyl-3-isopentyl-8-methyl xanthine]: in data set [1] (setting [14]), the ED50 is 1.03 mg/kg.

`C=CCn1c(=O)c2[nH]c(CC)nc2n(CCCC)c1=O` [Example 5, 1-allyl-3-butyl-8-ethyl xanthine]: the “minimal effective concentration producing a significant response, anti-histamine (f)” value in [2] turned out to be 100 µg/mL. Moreover, the minimal effective dose in data set [3] was found to be 2.5 mg/kg. Also, the “minimal effective concentration producing a significant response, bronchodilatory (e)” value in data set [4] was determined as 5 µg/mL. Also, the ED50 in data set [1] (setting [14]) turned out to be 6.24 mg/kg. In data set [5], the “minimal effective dose producing a significant response, anti-allergic (d)” value was “no effect”.

Regarding `CCCCn1c(=O)n(CC)c(=O)c2[nH]c(C)nc21` [Example 8, 1-ethyl-3-butyl-8-methyl xanthine], in data set [1] (setting [14]), the ED50 was determined as 1.02 mg/kg.

Regarding `C=CCn1c(=O)c2[nH]cnc2n(CC(C)C)c1=O` [Example 3, 1-allyl-3-isobutyl xanthine], in data set [2], the “minimal effective concentration producing a significant response, anti-histamine (f)” value worked out at 200 µg/mL. Further, the minimal effective dose in [3] turned out to be 5 mg/kg. In data set [4], the “minimal effective concentration producing a significant response, bronchodilatory (e)” value is “no effect”. Moreover, the ED50 in data set [1] (setting [14]) amounted to 0.98 mg/kg. In [5], the “minimal effective dose producing a significant response, anti-allergic (d)” value is reported as “no effect”.

Regarding `CN(C)CCCN1c2ccccc2Sc2ccc(Cl)cc21` [chlorpromazine, reference compound], in data set [1] (po), the ED50 was determined as 21 mg/kg.

With `CCCn1c(=O)c2[nH]c(C)nc2n(CC(C)C)c1=O` [Example 12, 1-propyl-3-isobutyl-8-methyl xanthine], the “hypomotility induced by amphetamine” value in data set [6] is “antagonism at 0.5 mg/kg p.o”. Moreover, the “catalepsy induced by haloperidol” value in data set [7] is “potentialisation at 1 mg/kg p.o”. The “analgesia induced by pentobarbital” value in data set [8] is “potentialisation at 0.5 mg/kg p.o”. Further, the “climbing behaviour induced by apomorphine” value (“climbing behaviour induced” for short) in data set [9] is on record as “inhibition at 1 mg/kg p.o”. The LD50 in data set [10] (setting [15]) was found to be 19 mg/kg; in data set [10] (setting [16]) it was 28 mg/kg. Moreover, the rectal temperature result in data set [11] is on record as “hypothermal effect at 2 mg/kg p.o”. For the same compound, the ED50 in [1] (setting [14]) came to 0.25 mg/kg. Further, in [12], the “stereotype behaviour induced by apomorphine” value (“stereotype behaviour induced” for short) is given as “no antagonism up to 8 mg/kg p.o”.

As for `C=CCn1c(=O)c2[nH]c(C)nc2n(CCC)c1=O` [Example 6, 1-allyl-3-propyl-8-methyl xanthine], in [1] (setting [14]), the ED50 was 0.27 mg/kg.

In [1] (po), `CNC1=Nc2ccc(Cl)cc2C(c2ccccc2)=[N+]([O-])C1` [chlordiazepoxide, reference compound] yielded an ED50 of 12 mg/kg.

For the compound `C=CCn1c(=O)c2[nH]c(C)nc2n(CC(C)C)c1=O` [Example 4, 1-allyl-3-isobutyl-8-methyl xanthine], the “hypomotility induced by amphetamine” value in data set [6] is given as “antagonism at 0.5 mg/kg p.o”. In [7], the “catalepsy induced by haloperidol” value is recorded as “potentialisation at 1 mg/kg p.o”. Also, the “analgesia induced by pentobarbital” value in [8] is “potentialisation at 0.5 mg/kg p.o”. The “minimal effective concentration producing a significant response, anti-histamine (f)” value in data set [2] is given as “no effect”. In addition, the values for the minimal effective dose in [3] and in data set [5] were 20 mg/kg and 50 mg/kg, respectively. Also, the LD50 in data set [13] (female, read-out: LD 50, mice female) turned out to be 49 mg/kg; in data set [13] (male, read-out: LD 50, mice male) it was 79 mg/kg; in [10] (setting [15]), 17 mg/kg; in [10] (setting [16]), 23 mg/kg. Besides, the “climbing behaviour induced” value in [9] was “inhibition at 1 mg/kg p.o”. In addition, the rectal temperature entry in [11] was “hypothermal effect at 2 mg/kg p.o”. Besides, the “minimal effective concentration producing a significant response, bronchodilatory (e)” value in data set [4] is listed as “no effect”. In addition, the ED50 in data set [1] (setting [14]) was 0.25 mg/kg. Also, the Effect entry in data set [1] (sedative/anxiolytic class) is listed as “S.N”. The “stereotype behaviour induced” value in [12] is listed as “no antagonism up to 8 mg/kg p.o”.

Turning to `O=C(CCCN1CCC(O)(c2ccc(Cl)cc2)CC1)c1ccc(F)cc1` [haloperidol, reference compound], the ED50 in [1] (po) was found to be 1 mg/kg.

Take `Cn1c(=O)c2[nH]cnc2n(C)c1=O` [theophylline, reference compound]: in data set [1] (conclusion from Table 3), the action profile result is “psychostimulating” and the “effect on the anxiety state” value was “does not have any effect on the anxiety state”.

`CCCCn1c(=O)c2[nH]c(C)nc2n(CCC)c1=O` [Example 13, 1-butyl-3-propyl-8-methyl xanthine]: the ED50 in data set [1] (setting [14]) came to 1.05 mg/kg.

For the compound `CCCCn1c(=O)n(C(C)C)c(=O)c2[nH]c(C)nc21` [Example 16, 1-isopropyl-3-butyl-8-methyl xanthine], the ED50 in data set [1] (setting [14]) turned out to be 1.76 mg/kg.

Regarding `C=CCn1c(=O)n(CCCC)c(=O)c2[nH]c(C)nc21` [Example 10, 1-butyl-3-allyl-8-methyl xanthine], the ED50 in data set [1] (setting [14]) is 3.95 mg/kg.

`C=CCn1c(=O)c2[nH]c(C)nc2n(CCCC)c1=O` [Example 1, 1-allyl-3-butyl-8-methyl xanthine]: the “hypomotility induced by amphetamine” value in data set [6] is given as “antagonism at 0.5 mg/kg p.o”. Besides, the “catalepsy induced by haloperidol” value in data set [7] is recorded as “potentialisation at 1 mg/kg p.o”. The “analgesia induced by pentobarbital” value in data set [8] was “potentialisation at 0.5 mg/kg p.o”. In addition, the “minimal effective concentration producing a significant response, anti-histamine (f)” value in data set [2] was 100 µg/mL. In addition, the minimal effective dose came to 5 mg/kg in [3] and 2.5 mg/kg in data set [5]. The “climbing behaviour induced” value in [9] is given as “inhibition at 1 mg/kg p.o”. Also, the rectal temperature result in [11] is recorded as “hypothermal effect at 2 mg/kg p.o”. Moreover, the “minimal effective concentration producing a significant response, bronchodilatory (e)” value in data set [4] stood at 100 µg/mL. The compound also displayed an ED50 in [1] (po) of 0.14 mg/kg. Further, in [12], the “stereotype behaviour induced” value is on record as “no antagonism up to 8 mg/kg p.o”.

Turning to `CCCCn1c(=O)n(CC)c(=O)c2[nH]c(CC)nc21` [Example 9, 1,8-diethyl-3-butyl xanthine], the “minimal effective concentration producing a significant response, anti-histamine (f)” value in data set [2] is 50 µg/mL. In addition, in data set [3], the minimal effective dose worked out at 5 mg/kg. Further, the “minimal effective concentration producing a significant response, bronchodilatory (e)” value in data set [4] was 25 µg/mL. In addition, the ED50 in data set [1] (setting [14]) turned out to be 2.38 mg/kg. The “minimal effective dose producing a significant response, anti-allergic (d)” value in data set [5] is reported as “no effect”.

Consider `C=CCn1c(=O)c2[nH]cnc2n(CCCC)c1=O` [Example 2, 1-allyl-3-butyl xanthine], for which the “minimal effective concentration producing a significant response, anti-histamine (f)” value in data set [2] is 100 µg/mL. The minimal effective dose in [3] and in [5] was 10 mg/kg in each case. The LD50 in [10] (setting [15]) and in [10] (setting [16]) was greater than 200 mg/kg in each case. Further, the “minimal effective concentration producing a significant response, bronchodilatory (e)” value in [4] turned out to be 25 µg/mL. Moreover, in data set [1] (setting [14]), the ED50 is 1.6 mg/kg.

In the case of `CCCn1c(=O)c2[nH]c(C)nc2n(CCC)c1=O` [Example 14, 1,3-dipropyl-8-methyl xanthine], the ED50 in [1] (setting [14]) amounted to 0.37 mg/kg.

The values above are taken from patent US4581451A, “Preparation of di- and tri-substituted xanthine compounds” (priority 1980, dated 1986).
